Results as given in patent publication US20240245793A1, “PSD-95 INHIBITORS AND USES THEREOF” (priority 2021, published 2024).
Where two headings read alike, the source gives them in different places.

Test system: HeLa cells stably expressing HaloGFP
Test: Chloroalkane penetration assay (CAPA), membrane permeability and cellular uptake
Format: cell-based
Text: Since PSD-95 is located intracellularly, it is essential for any drug targeting PSD-95 to efficiently cross the cell membrane. To assess the cellular permeability and delivery to the cytosol of the compounds as defined herein, the cellular chloroalkane penetration assay (CAPA) may be used (Peraro et al. 2018). This assay takes advantage of a modified haloalkane dehalogenase designed to covalently bind chloroalkane (CA) molecules. A HeLa cell line expressing a fusion protein comprising a HaloTag, a green fluorescent protein (GFP) and a mitochondria-targeting peptide is used to report cytosolic delivery. The general format of the CAPA is a pulse-chase assay (Deprey & Kritzer, 2020). Cells expressing the HaloTag enzyme are incubated with CA-tagged peptides. When these CA-peptides penetrate the cell membrane and reach the cytosol, they will bind to and react with the HaloTag (pulse step). Following a washing step, the cells are incubated with a CA-tagged dye that quantitatively penetrates the cell membrane and reacts with remaining unreacted HaloTag sites (chase step). Flow cytometry is used to measure the fluorescence intensity of the cells and the measured fluorescence is inversely proportional to the amount of CA-peptides that reach the penetrated the cells and can thus be used to assess cytosolic delivery. The obtained data is commonly expressed as CP50 values, the concentration at which 50% cell penetration is observed. The CP50 value of a compound may be measured as described in example 4.
The membrane permeability of compounds 10 to 75 was determined in HeLa cells stably expressing HaloGFP exclusively located in the cytosol. Cells were seeded at a density of 40.000 cells/well one day prior to the experiment. After the growth media was aspirated and replaced by 100 μL of Opti-MEM, 25 μL of a prepared serial dilution of the ligand in Opti-MEM was added to the cells (constant DMSO concentration), and the plate was incubated for 4 h at 37° C. and 5% CO2. The contents of the wells were aspirated, and cells were washed with fresh Opti-MEM for 15 min. After aspiration of the wash, the cells were incubated with TAMRA-CA (5 μM) for 15 min. After aspiration of the chase solution, cells were washed with Opti-MEM for 30 min. Following removal of the wash, cells were trypsinized, resuspended in PBS (2% FBS), and analyzed using a benchtop flow cytometer. Using no ligand and no TAMRA-CA control well, the obtained fluorescence intensity data was normalized and plotted as dose-response curves. Reported CP50 values represent half-maximum red fluorescence which behaves inverse to cell penetration of the ligand.

[1] = CA-tagged NPEG4-(IETDV)2 with various CPP-tags, 4 h at 37° C., mean ± SEM (Table 11, FIG. 8)
[2] = CA-tagged ligands, 4 h at 37° C., L-TAT and L-Arg9, mean ± SEM (Table 10, FIG. 7)

Compound | CP50 [µM] | CP50 [1] [µM] | CP50 [2] [µM]
CC(C)C[C@H](NC(=O)[C@@H](NC(=O)[C@H](CCC(=O)O)NC(=O)[C@H](CCCCN)NC(=O)CCOCCOCCN(CCOCCOCCC(=O)N[C@@H](CCCCN)C(=O)N[C@@H](CCC(=O)O)C(=O)N[C@H](C(=O)N[C@@H](CC(C)C)C(=O)N[C@H](C(=O)O)C(C)C)[C@@H](C)O)C(=O)[C@H](CCCNC(=N)N)NC(=O)[C@H](CCCNC(=N)N)NC(=O)[C@H](CCCNC(=N)N)NC(=O)CCC(=O)NCCOCCOCCCCCCCl)[C@@H](C)O)C(=O)N[C@H](C(=O)O)C(C)C [Compound 75] | 7.36 ± 0.31 | – | –
CC(C)C[C@H](NC(=O)[C@@H](NC(=O)[C@H](CCC(=O)O)NC(=O)[C@H](CCCCN)NC(=O)CCOCCOCCN(CCOCCOCCC(=O)N[C@@H](CCCCN)C(=O)N[C@@H](CCC(=O)O)C(=O)N[C@H](C(=O)N[C@@H](CC(C)C)C(=O)N[C@H](C(=O)O)C(C)C)[C@@H](C)O)C(=O)[C@H](CCCNC(=N)N)NC(=O)[C@H](CCCNC(=N)N)NC(=O)[C@H](CCCNC(=N)N)NC(=O)[C@H](CCCNC(=N)N)NC(=O)[C@H](CCCNC(=N)N)NC(=O)[C@H](CCCNC(=N)N)NC(=O)[C@H](CCCNC(=N)N)NC(=O)[C@H](CCCNC(=N)N)NC(=O)[C@H](CCCNC(=N)N)NC(=O)CCC(=O)NCCOCCOCCCCCCCl)[C@@H](C)O)C(=O)N[C@H](C(=O)O)C(C)C [Compound 24] | 0.78 ± 0.05 | – | –
CC[C@H](C)[C@H](NC(=O)CCOCCOCCN(CCOCCOCCC(=O)N[C@H](C(=O)N[C@@H](CCC(=O)O)C(=O)N[C@H](C(=O)N[C@@H](CC(=O)O)C(=O)N[C@H](C(=O)O)C(C)C)[C@@H](C)O)[C@@H](C)CC)C(=O)[C@H](CO)NC(=O)[C@H](CCC(=O)O)NC(=O)[C@H](CCCNC(=N)N)NC(=O)[C@H](CCCNC(=N)N)NC(=O)[C@H](CCCNC(=N)N)NC(=O)[C@H](CCCCN)NC(=O)[C@H](CCCCN)NC(=O)[C@H](CCCNC(=N)N)NC(=O)[C@H](CO)NC(=O)[C@H](CCC(=O)O)NC(=O)[C@H](CCCNC(=N)N)NC(=O)[C@H](CCCNC(=N)N)NC(=O)[C@H](CCCNC(=N)N)NC(=O)[C@H](CCCCN)NC(=O)[C@H](CCCCN)NC(=O)[C@H](CCCNC(=N)N)NC(=O)CCC(=O)NCCOCCOCCCCCCCl)C(=O)N[C@@H](CCC(=O)O)C(=O)N[C@H](C(=O)N[C@@H](CC(=O)O)C(=O)N[C@H](C(=O)O)C(C)C)[C@@H](C)O [Compound 51] | 3.2 ± 0.5 | – | –
CC[C@H](C)[C@H](NC(=O)CCOCCOCCN(CCOCCOCCC(=O)N[C@H](C(=O)N[C@@H](CCC(=O)O)C(=O)N[C@H](C(=O)N[C@@H](CC(=O)O)C(=O)N[C@H](C(=O)O)C(C)C)[C@@H](C)O)[C@@H](C)CC)C(=O)[C@H](CCCNC(=N)N)NC(=O)[C@H](CCCNC(=N)N)NC(=O)[C@H](CCCNC(=N)N)NC(=O)[C@H](CCC(N)=O)NC(=O)[C@H](CCCNC(=N)N)NC(=O)[C@H](CCCNC(=N)N)NC(=O)[C@H](CCCCN)NC(=O)[C@H](CCCCN)NC(=O)[C@H](CCCNC(=N)N)NC(=O)CNC(=O)[C@H](Cc1ccc(O)cc1)NC(=O)CCC(=O)NCCOCCOCCCCCCCl)C(=O)N[C@@H](CCC(=O)O)C(=O)N[C@H](C(=O)N[C@@H](CC(=O)O)C(=O)N[C@H](C(=O)O)C(C)C)[C@@H](C)O [Compound 10] | – | 55.1 ± 3.0 | 55.1 ± 3.0
CC(C)[C@H](NC(=O)[C@@H](NC(=O)[C@@H](NC(=O)[C@H](CCC(=O)O)NC(=O)[C@H](CCCCN)NC(=O)CCOCCOCCN(CCOCCOCCC(=O)N[C@@H](CCCCN)C(=O)N[C@@H](CCC(=O)O)C(=O)N[C@H](C(=O)N[C@H](C(=O)N[C@H](C(=O)O)C(C)C)[C@@H](C)O)[C@@H](C)O)C(=O)[C@H](CCCNC(=N)N)NC(=O)[C@H](CCCNC(=N)N)NC(=O)[C@H](CCCNC(=N)N)NC(=O)[C@H](CCCNC(=N)N)NC(=O)[C@H](CCCNC(=N)N)NC(=O)[C@H](CCCNC(=N)N)NC(=O)[C@H](CCCNC(=N)N)NC(=O)[C@H](CCCNC(=N)N)NC(=O)[C@H](CCCNC(=N)N)NC(=O)CCC(=O)NCCOCCOCCCCCCCl)[C@@H](C)O)[C@@H](C)O)C(=O)O [Compound 26] | 0.74 ± 0.09 | – | –
CC(C)[C@H](NC(=O)[C@@H](NC(=O)[C@@H](NC(=O)[C@H](CCC(=O)O)NC(=O)[C@H](CCCCN)NC(=O)CCOCCOCCN(CCOCCOCCC(=O)N[C@@H](CCCCN)C(=O)N[C@@H](CCC(=O)O)C(=O)N[C@H](C(=O)N[C@H](C(=O)N[C@H](C(=O)O)C(C)C)C(C)C)[C@@H](C)O)C(=O)[C@H](CCCNC(=N)N)NC(=O)[C@H](CCCNC(=N)N)NC(=O)[C@H](CCCNC(=N)N)NC(=O)[C@H](CCC(N)=O)NC(=O)[C@H](CCCNC(=N)N)NC(=O)[C@H](CCCNC(=N)N)NC(=O)[C@H](CCCCN)NC(=O)[C@H](CCCCN)NC(=O)[C@H](CCCNC(=N)N)NC(=O)CNC(=O)[C@H](Cc1ccc(O)cc1)NC(=O)CCC(=O)NCCOCCOCCCCCCCl)[C@@H](C)O)C(C)C)C(=O)O [Compound 16] | – | – | 81.8 ± 1.2
CC[C@H](C)[C@H](NC(=O)CCOCCOCCN(CCOCCOCCC(=O)N[C@H](C(=O)N[C@@H](CCC(=O)O)C(=O)N[C@H](C(=O)N[C@@H](CC(=O)O)C(=O)N[C@H](C(=O)O)C(C)C)[C@@H](C)O)[C@@H](C)CC)C(=O)[C@H](C)NC(=O)[C@H](CC(C)C)NC(=O)[C@H](CCCCN)NC(=O)[C@H](CC(C)C)NC(=O)[C@H](C)NC(=O)[C@H](C)NC(=O)[C@H](CCCCN)NC(=O)[C@H](CC(C)C)NC(=O)[C@H](C)NC(=O)[C@H](CCCCN)NC(=O)[C@H](CC(C)C)NC(=O)[C@H](C)NC(=O)[C@H](CC(C)C)NC(=O)[C@H](CCCCN)NC(=O)[C@H](CC(C)C)NC(=O)[C@H](C)NC(=O)[C@H](CC(C)C)NC(=O)[C@H](CCCCN)NC(=O)CCC(=O)NCCOCCOCCCCCCCl)C(=O)N[C@@H](CCC(=O)O)C(=O)N[C@H](C(=O)N[C@@H](CC(=O)O)C(=O)N[C@H](C(=O)O)C(C)C)[C@@H](C)O [Compound 55] | 3.7 ± 0.3 | – | –
CC[C@H](C)[C@H](NC(=O)CCOCCOCCN(CCOCCOCCC(=O)N[C@H](C(=O)N[C@@H](CCC(=O)O)C(=O)N[C@H](C(=O)N[C@@H](CC(=O)O)C(=O)N[C@H](C(=O)O)C(C)C)[C@@H](C)O)[C@@H](C)CC)C(=O)[C@H](CCCNC(=N)N)NC(=O)[C@H](CCCNC(=N)N)NC(=O)[C@H](CCCNC(=N)N)NC(=O)[C@H](CCCNC(=N)N)NC(=O)[C@H](CCCNC(=N)N)NC(=O)CCC(=O)NCCOCCOCCCCCCCl)C(=O)N[C@@H](CCC(=O)O)C(=O)N[C@H](C(=O)N[C@@H](CC(=O)O)C(=O)N[C@H](C(=O)O)C(C)C)[C@@H](C)O [Compound 65] | 1.17 ± 0.37 | – | –
CC[C@H](C)[C@H](NC(=O)CCOCCOCCN(CCOCCOCCC(=O)N[C@H](C(=O)N[C@@H](CCC(=O)O)C(=O)N[C@H](C(=O)N[C@@H](CC(=O)O)C(=O)N[C@H](C(=O)O)C(C)C)[C@@H](C)O)[C@@H](C)CC)C(=O)[C@@H]1CC(=O)NC[C@H](NC(=O)CCC(=O)NCCOCCOCCCCCCCl)C(=O)N[C@@H](CCCCN)C(=O)N[C@@H](C)C(=O)N2CCC[C@H]2C(=O)N[C@@H](CCC(=O)O)C(=O)N[C@@H]([C@@H](C)O)C(=O)N[C@@H](C)C(=O)N[C@@H](CC(C)C)C(=O)N1)C(=O)N[C@@H](CCC(=O)O)C(=O)N[C@H](C(=O)N[C@@H](CC(=O)O)C(=O)N[C@H](C(=O)O)C(C)C)[C@@H](C)O [Compound 61] | – | 13.2 ± 0.4 | –
CC(C)C[C@H](NC(=O)[C@@H](NC(=O)[C@H](CCC(=O)O)NC(=O)[C@H](CCCCN)NC(=O)CCOCCOCCN(CCOCCOCCC(=O)N[C@@H](CCCCN)C(=O)N[C@@H](CCC(=O)O)C(=O)N[C@H](C(=O)N[C@@H](CC(C)C)C(=O)N[C@H](C(=O)O)C(C)C)[C@@H](C)O)C(=O)[C@H](CCCNC(=N)N)NC(=O)[C@H](CCCNC(=N)N)NC(=O)[C@H](CCCNC(=N)N)NC(=O)[C@H](CCCNC(=N)N)NC(=O)CCC(=O)NCCOCCOCCCCCCCl)[C@@H](C)O)C(=O)N[C@H](C(=O)O)C(C)C [Compound 74] | 0.37 ± 0.08 | – | –
CC[C@H](C)[C@H](NC(=O)CCOCCOCCN(CCOCCOCCC(=O)N[C@H](C(=O)N[C@@H](CCC(=O)O)C(=O)N[C@H](C(=O)N[C@@H](CC(=O)O)C(=O)N[C@H](C(=O)O)C(C)C)[C@@H](C)O)[C@@H](C)CC)C(=O)[C@H](CCCNC(=N)N)NC(=O)[C@H](CCCNC(=N)N)NC(=O)[C@H](CCCNC(=N)N)NC(=O)CCC(=O)NCCOCCOCCCCCCCl)C(=O)N[C@@H](CCC(=O)O)C(=O)N[C@H](C(=O)N[C@@H](CC(=O)O)C(=O)N[C@H](C(=O)O)C(C)C)[C@@H](C)O [Compound 66] | 3.71 ± 0.30 | – | –
